ChEMBL document CHEMBL3046069, “Anti-inflammatory effects of two new methyl and morpholine derivatives of diphenhydramine on rats” (2012)
Activity calls are given as the source filed them. The calls are words filed in the database; no cut-off is given here.

What was measured:
Rattus norvegicus [1] = test: Anti-inflammatory activity in Rattus norvegicus Wistar (rat) assessed as cotton pellet-induced dry weight of granuloma administered 7 days post cotton pellet implantation measured on day 8 (reference value: […]); assay type: functional
Rattus norvegicus [2] = test: Anti-inflammatory activity in Rattus norvegicus Wistar (rat) assessed as inhibition of acetic acid-induced dye extrusion into peritonial cavity administered 30 min prior to acetic acid challenge measured after 30 min by Evans blue dye-based spectrophotometric analysis relative to control; assay type: functional
Rattus norvegicus [3] = test: Anti-inflammatory activity in Rattus norvegicus Wistar (rat) assessed as inhibition of […]-induced ear edema administered 30 min prior to […] challenge measured after 30 min by Evans blue dye-based spectrophotometric analysis relative to control; assay type: functional, organism-based
Rattus norvegicus [4] = test: Anti-inflammatory activity in Rattus norvegicus Wistar (rat) assessed as inhibition of formalin-induced dye extrusion from plantar surface of paws at 25 mg/kg, ip administered 30 min prior to formalin challenge measured after 30 min by Evans blue dye-based spectrophotometric analysis; assay type: functional; conditions: route intraperitoneal
Rattus norvegicus [5] = test: Anti-inflammatory activity in Rattus norvegicus Wistar (rat) assessed as inhibition of histamine-induced dye extrusion from plantar surface of paws at 25 mg/kg, ip administered 30 min […] measured after 30 min by Evans blue dye-based spectroscopic analysis; assay type: functional; conditions: route intraperitoneal
Rattus norvegicus [6] = test: Anti-inflammatory activity in Rattus norvegicus Wistar (rat) assessed as inhibition of histamine-induced paw edema at 25 mg/kg, ip administered 30 min […] measured at 1 hr relative to control; assay type: functional; conditions: route intraperitoneal
Rattus norvegicus [7] = test: Anti-inflammatory activity in Rattus norvegicus Wistar (rat) assessed as inhibition of formalin-induced paw edema at 25 mg/kg, ip administered 30 min prior to formalin challenge measured at 1 hr relative to control; assay type: functional; conditions: route intraperitoneal

SMILES	Activity (Rattus norvegicus [1]) [mg]	inhibition (INH) (Rattus norvegicus [2]) [%]	inhibition (Rattus norvegicus [3])	inhibition in vivo at 25 mg/kg (Rattus norvegicus [4]) [%]	inhibition in vivo at 25 mg/kg (Rattus norvegicus [5]) [%]	inhibition (Rattus norvegicus [2])	inhibition in vivo at 25 mg/kg (Rattus norvegicus [6]) [%]	inhibition in vivo at 25 mg/kg (Rattus norvegicus [7]) [%]
CN(C)CCOC(c1ccccc1)c1ccccc1 [DIPHENHYDRAMINE]	76.2	–	–	–	–	–	–	–
Cc1ccc(C(OCCN2CCOCC2)c2ccc(C)cc2)cc1	71	63.26	inactive	60	60	–	–	–
CN(C)CCOC(c1ccccc1)c1ccc(Br)cc1 (configuration not stated) [BROMODIPHENHYDRAMINE]	–	–	inactive	–	–	Active	22.4	14.3
Cc1ccc(C(OCCN(C)C)c2ccc(C)cc2)cc1 [DI(P-TOLYL)(DIMETHYLAMINOETHOXY)METHANE]	73.2	65.3	inactive	66.7	57.1	–	40.8	34.7
